Measured values reported in patent US20230123334A1, “AMINO LIPID COMPOUND, PREPARATION METHOD THEREFOR, AND APPLICATION THEREOF” (SHENZHEN SHENXIN BIOTECHNOLOGY CO., LTD., priority 2020, published 2023).

System: HEK293 cells
Test: Preliminary screening as mRNA vectors, EGFP mRNA transfection of HEK293 cells
Type: cell-based
Settings: EGFP mRNA 50 ng per well, 96-well plates; percentage of GFP fluorescent cells relative to total number of cells (Hoechst)
Method in brief: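 Each well of HEK293 cells received 50 ng of EGFP mRNA. Efficiency was expressed as percent GFP-expressing cells over Hoechst-defined total cell number.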

## CCCCCCCCCSc1nc(NCCCCCCC)nc(NCCN2CCCC2)n1 [Compound D3S9N7]
  Absolute mRNA transfection efficiency in HEK293 cells: 1.4%

## CCCCCCCCCCCCCCCCCCNc1nc(NCCN(C)C)nc(SCCCCCCCCCCC)n1 [Compound D1S11N18]
  Absolute mRNA transfection efficiency in HEK293 cells: 15.4%

## CCCCCCCCCCCCCCCCSc1nc(NCCCCCCCCCCCC)nc(NCCCN2CCOCC2)n1 [Compound D8S16N12]
  Absolute mRNA transfection efficiency in HEK293 cells: 0.9%

## CCCCCCCCCCCCSc1nc(NCCN(C)C)nc(SCCCCCCCC)n1 [Compound D1S8S12]
  Absolute mRNA transfection efficiency in HEK293 cells: 1.4%

## CCCCCCCCCCCCCCCCCCSc1nc(NCCCCCCCCCCCC)nc(NCCCN(C)C)n1 [Compound D6S18N12]
  Absolute mRNA transfection efficiency in HEK293 cells: 2.6%

## CCCCCCCCCCCCCCCCNc1nc(NCCN2CCN(C)CC2)nc(SCCCCCCCCCCCCCC)n1 [Compound D5S14N16]
  Absolute mRNA transfection efficiency in HEK293 cells: 0.6%

## CCCCCCCCCCSc1nc(NCCCCCCCC)nc(NCCN(C)C)n1 [Compound D1S10N8]
  Absolute mRNA transfection efficiency in HEK293 cells: 0.5%

## CCCCCCCCCCCCCCCCCCSc1nc(NCCCCCCCCCCCCCCCC)nc(NCCN2CCCC2)n1 [Compound D3S18N16]
  Absolute mRNA transfection efficiency in HEK293 cells: 0.5%

## CCCCCCCCCCCCCNc1nc(NCCCN2CCN(C)CC2)nc(SCCCCCCCC)n1 [Compound D9S8N13]
  Absolute mRNA transfection efficiency in HEK293 cells: 46.5%

## CCCCCCCCCCCCCCCCCCSc1nc(NCCCCCCCCCCCCC)nc(NCCN2CCCC2)n1 [Compound D3S18N13]
  Absolute mRNA transfection efficiency in HEK293 cells: 1.0%

## CCCCCCCCCCCCNc1nc(NCCN(CC)CC)nc(SCCCCCC)n1 [Compound D7S6N12]
  Absolute mRNA transfection efficiency in HEK293 cells: 1.4%

## CCCCCCCCCCCCCCCCCCSc1nc(NCCCCCC)nc(NCCN(C)C)n1 [Compound D1S18N6]
  Absolute mRNA transfection efficiency in HEK293 cells: 42.6%

## CCCCCCCCCCSc1nc(NCCCN2CCN(C)CC2)nc(SCCCCCC)n1 [Compound D9S6S10]
  Absolute mRNA transfection efficiency in HEK293 cells: 23.7%

## CCCCCCCCCCCCCCCCCCSc1nc(NCCCCCCCCCCC)nc(NCCCN2CCOCC2)n1 [Compound D8S18N11]
  Absolute mRNA transfection efficiency in HEK293 cells: 1.9%

## CCCCCCCCCCCCCCCCCCSc1nc(NCCCCCCCC)nc(NCCCN(C)C)n1 [Compound D6S18N8]
  Absolute mRNA transfection efficiency in HEK293 cells: 74.5%

## CCCCCCCCCCCCCCSc1nc(NCCN(C)C)nc(SCCCCCC)n1 [Compound D1S6S14]
  Absolute mRNA transfection efficiency in HEK293 cells: 0.8%

## CCCCCCCCCCCSc1nc(NCCCCCCC)nc(NCCCN2CCOCC2)n1 [Compound D8S11N7]
  Absolute mRNA transfection efficiency in HEK293 cells: 3.1%

## CCCCCCCCCCCCSc1nc(NCC2CCN(C)CC2)nc(N(CCCCCCCCCCCC)CCCCCCCCCCCC)n1 [D10S12^2N12]
  Absolute mRNA transfection efficiency in HEK293 cells: 3.4%

## CCCCCCCNc1nc(NCC2CCN(C)CC2)nc(SCCCCCCC)n1 [Compound D10S7N7]
  Absolute mRNA transfection efficiency in HEK293 cells: 0.9%

## CCCCCCCCCCCCCCCNc1nc(NCCN2CCOCC2)nc(SCCCCCCCCCC)n1 [Compound D2S10N15]
  Absolute mRNA transfection efficiency in HEK293 cells: 1.3%

## CCCCCCCCCCCCCCCCCCNc1nc(NCCN(C)C)nc(SCCCCCCCC)n1 [Compound D1S8N18]
  Absolute mRNA transfection efficiency in HEK293 cells: 19.3%

## CCCCCCCCCCCCCCCNc1nc(NCC2CCN(C)CC2)nc(SCCCCCCCCCCC)n1 [Compound D10S11N15]
  Absolute mRNA transfection efficiency in HEK293 cells: 18.6%

## CCCCCCCCCCCCCCCCNc1nc(NCCCN2CCN(C)CC2)nc(SCCCCCCCCC)n1 [Compound D9S9N16]
  Absolute mRNA transfection efficiency in HEK293 cells: 16.7%

## CCCCCCCCCCCCSc1nc(NCCCCCCCCCCC)nc(NCCCN2CCN(C)CC2)n1 [Compound D9S12N11]
  Absolute mRNA transfection efficiency in HEK293 cells: 3.3%

## CCCCCCCCCCCCCCSc1nc(NCCCCCCC)nc(NCCN(C)C)n1 [Compound D1S14N7]
  Absolute mRNA transfection efficiency in HEK293 cells: 25.7%

## CCCCCCCCCCCCCCSc1nc(NCCCCCCCCCCCC)nc(NCCN2CCN(C)CC2)n1 [Compound D5S14N12]
  Absolute mRNA transfection efficiency in HEK293 cells: 11.3%

## CCCCCCCCCCCCCCCCCCSc1nc(NCCCCCCCCC)nc(NCCN(CC)CC)n1 [Compound D7S18N9]
  Absolute mRNA transfection efficiency in HEK293 cells: 1.9%

## CCCCCCCCCCCCCCCCCCSc1nc(NCCCCCCCCCCCCCCCC)nc(NCCN2CCN(C)CC2)n1 [Compound D5S18N16]
  Absolute mRNA transfection efficiency in HEK293 cells: 0.1%

## CCCCCCCCCCCSc1nc(NCCCCCCCC)nc(NCCN2CCCCC2)n1 [Compound D4S11N8]
  Absolute mRNA transfection efficiency in HEK293 cells: 4.3%

## CCCCCCCCCCCSc1nc(NCC2CCN(C)CC2)nc(SCCCCCC)n1 [Compound D10S6S11]
  Absolute mRNA transfection efficiency in HEK293 cells: 15.9%

## CCCCCCCCCSc1nc(NCCCCCCC)nc(NCCN2CCN(C)CC2)n1 [Compound D5S9N7]
  Absolute mRNA transfection efficiency in HEK293 cells: 2.6%

## CCCCCCCCCCCCCCCCCCSc1nc(NCCCCCCC)nc(NCCN2CCCC2)n1 [Compound D3S18N7]
  Absolute mRNA transfection efficiency in HEK293 cells: 97.2%

## CCCCCCCCCSc1nc(NCCCCCCC)nc(NCCN(CC)CC)n1 [Compound D7S9N7]
  Absolute mRNA transfection efficiency in HEK293 cells: 1.6%

## CCCCCCCCSc1nc(NCCN(CC)CC)nc(SCCCCCCCC)n1 [Compound D7S8S8]
  Absolute mRNA transfection efficiency in HEK293 cells: 25.3%

## CCCCCCCCCCCCNc1nc(NCCCN2CCOCC2)nc(SCCCCCCCCCC)n1 [Compound D8S10N12]
  Absolute mRNA transfection efficiency in HEK293 cells: 0.1%

## CCCCCCCCCCCCSc1nc(NCCCCCCC)nc(NCC2CCN(C)CC2)n1 [Compound D10S12N7]
  Absolute mRNA transfection efficiency in HEK293 cells: 1.7%

## CCCCCCCCCCCCCCSc1nc(NCCCCCCCCCCC)nc(NCCN2CCOCC2)n1 [Compound D2S14N11]
  Absolute mRNA transfection efficiency in HEK293 cells: 3.5%

## CCCCCCCCCCCNc1nc(NCCN2CCN(C)CC2)nc(SCCCCCCC)n1 [Compound D5S7N11]
  Absolute mRNA transfection efficiency in HEK293 cells: 8.2%

## CCCCCCCCCCCCCCCCCCNc1nc(NCCN2CCCCC2)nc(SCCCCCCCCC)n1 [Compound D4S9N18]
  Absolute mRNA transfection efficiency in HEK293 cells: 8.3%

## CCCCCCCCCCCCCCCCNc1nc(NCCCN(C)C)nc(SCCCCCCCCCCCCCC)n1 [Compound D6S14N16]
  Absolute mRNA transfection efficiency in HEK293 cells: 0.5%

## CCCCCCCCCCSc1nc(NCCCCCCCCC)nc(NCCN2CCOCC2)n1 [Compound D2S10N9]
  Absolute mRNA transfection efficiency in HEK293 cells: 0.5%

## CCCCCCCCCCSc1nc(NCCCCCC)nc(NCCCN2CCN(C)CC2)n1 [Compound D9S10N6]
  Absolute mRNA transfection efficiency in HEK293 cells: 1.1%

## CCCCCCCCCCCCSc1nc(NCCCCCCCCCCC)nc(NCCN(CC)CC)n1 [Compound D7S12N11]
  Absolute mRNA transfection efficiency in HEK293 cells: 4.4%

## CCCCCCCCCCCCCCCSc1nc(NCCN(CC)CC)nc(SCCCCCC)n1 [Compound D7S6S15]
  Absolute mRNA transfection efficiency in HEK293 cells: 1.3%

## CCCCCCCCCCCCCCCSc1nc(NCCCCCCCCCCCCC)nc(NCCN(C)C)n1 [Compound D1S15N13]
  Absolute mRNA transfection efficiency in HEK293 cells: 1.5%

## CCCCCCCCCCCCSc1nc(NCCCCCCCCCCC)nc(NCCN2CCN(C)CC2)n1 [Compound D5S12N11]
  Absolute mRNA transfection efficiency in HEK293 cells: 1.1%

## CCCCCCCCCCCCSc1nc(NCCCCCCC)nc(NCCCN(C)C)n1 [Compound D6S12N7]
  Absolute mRNA transfection efficiency in HEK293 cells: 13.0%

## CCCCCCCCCCCCCCCCCCNc1nc(NCCCN2CCN(C)CC2)nc(SCCCCCCCCCCC)n1 [Compound D9S11N18]
  Absolute mRNA transfection efficiency in HEK293 cells: 14.9%

## CCCCCCCCCCCCNc1nc(NCCCN2CCOCC2)nc(SCCCCCCCCCCCC)n1 [Compound D8S12N12]
  Absolute mRNA transfection efficiency in HEK293 cells: 0.0%

## CCCCCCCCSc1nc(NCCN2CCOCC2)nc(SCCCCCC)n1 [Compound D2S6S8]
  Absolute mRNA transfection efficiency in HEK293 cells: 5.0%

## CCCCCCCCCCCCCCCCNc1nc(NCCN(CC)CC)nc(SCCCCCCCC)n1 [Compound D7S8N16]
  Absolute mRNA transfection efficiency in HEK293 cells: 16.8%

## CCCCCCCCCCCCCCSc1nc(NCCCCCCCCC)nc(NCCCN2CCN(C)CC2)n1 [Compound D9S14N9]
  Absolute mRNA transfection efficiency in HEK293 cells: 23.7%

## CCCCCCCCCCCCSc1nc(NCCN(C)C)nc(SCCCCCC)n1 [Compound D1S6S12]
  Absolute mRNA transfection efficiency in HEK293 cells: 0.6%

## CCCCCCCCCCCCCCCCCCSc1nc(NCCN(C)C)nc(SCCCCCC)n1 [Compound D1S6S18]
  Absolute mRNA transfection efficiency in HEK293 cells: 15.9%

## CCCCCCCCCCCCCCCCNc1nc(NCCCN2CCOCC2)nc(SCCCCCC)n1 [Compound D8S6N16]
  Absolute mRNA transfection efficiency in HEK293 cells: 0.6%

## CCCCCCCCSc1nc(NCCCCCCC)nc(NCC2CCN(C)CC2)n1 [Compound D10S8N7]
  Absolute mRNA transfection efficiency in HEK293 cells: 0.3%

## CCCCCCCCCCSc1nc(NCCN2CCN(C)CC2)nc(SCCCCCCC)n1 [Compound D5S7S10]
  Absolute mRNA transfection efficiency in HEK293 cells: 12.2%

## CCCCCCCCCCCNc1nc(NCCCN2CCN(C)CC2)nc(SCCCCCCC)n1 [Compound D9S7N11]
  Absolute mRNA transfection efficiency in HEK293 cells: 13.8%

## CCCCCCCCCCSc1nc(NCCCCCCCCC)nc(NCCCN(C)C)n1 [Compound D6S10N9]
  Absolute mRNA transfection efficiency in HEK293 cells: 8.7%

## CCCCCCCCCCCCCCCCCCNc1nc(NCCN2CCN(C)CC2)nc(SCCCCCC)n1 [Compound D5S6N18]
  Absolute mRNA transfection efficiency in HEK293 cells: 16.6%

## CCCCCCCCCCCNc1nc(NCCCN2CCN(C)CC2)nc(SCCCCCCCCC)n1 [Compound D9S9N11]
  Absolute mRNA transfection efficiency in HEK293 cells: 49.2%

## CCCCCCCCCCCCCCCCCCSc1nc(NCCCCCCCCCCCCCCC)nc(NCCN2CCOCC2)n1 [Compound D2S18N15]
  Absolute mRNA transfection efficiency in HEK293 cells: 0.0%

## CCCCCCCNc1nc(NCCCN2CCN(C)CC2)nc(SCCCCCC)n1 [Compound D9S6N7]
  Absolute mRNA transfection efficiency in HEK293 cells: 2.6%

## CCCCCCCCCCSc1nc(NCCN2CCCCC2)nc(SCCCCCC)n1 [Compound D4S6S10]
  Absolute mRNA transfection efficiency in HEK293 cells: 0.3%

## CCCCCCCCCCCNc1nc(NCCN(C)C)nc(SCCCCCCCCC)n1 [Compound D1S9N11]
  Absolute mRNA transfection efficiency in HEK293 cells: 53.0%

## CCCCCCCCCNc1nc(NCCCN(C)C)nc(SCCCCCCC)n1 [Compound D6S7N9]
  Absolute mRNA transfection efficiency in HEK293 cells: 5.9%

## CCCCCCCCCCCCN(CCCCCCCCCCCC)c1nc(NCCN2CCCCC2)nc(SCCCCCCCCC)n1 [D4S9^2N12]
  Absolute mRNA transfection efficiency in HEK293 cells: 0.1%
